Experiment [1] has as its target T1, BKαβ1 (Rattus norvegicus, UniProt Q62976).
T1 construct: expressed in transfected cells; host or cells: HEK293
Nature of the experiment: Whole-cell current recording (whole-cell patch clamp), HEK293 constantly expressing rat BKα+β1. The class given is cell-based. Conditions: pCa 6.5, depolarization −60 mV to +10 mV. The procedure: According to the whole-cell patch clamp technique, whole-cell currents were recorded on HEK293 cell, in which rat BKα+β1 subunits were constantly expressed. All the experiments were carried out at 22-24° C.
Pipette solution (mM) 140 KCl, 4 MgCl2, 5 ATP, 10 HEPES, 5 EGTA (the pCa was adjusted to 6.5 by adding a suitable amount of CaCl2 to stabilize the pCa). The pH was adjusted to 7.2 with KOH.
Extracellular fluid (mM) 137 NaCl, 5.9 KCl, 2.2 CaCl2, 1.2 MgCl2, 14 Glucose, 10 HEPES. The pH was adjusted to 7.4 with NaOH.
(§1) Since the test compounds were highly aliphatic, and hard to dissolve in water, they were dissolved by DMSO and preserved as 30 mM stock solutions. On administration, final concentration in the DMSO solutions were made at most 0.03%. Incidentally, DMSO was confirmed not to have any influence on BK currents, when its concentration is 0.3% or less.
The whole-cell currents were recorded with the cells in which BK(α+β1) channels were constantly expressed, by the whole-cell patch clamp technique. The Ca^2+ concentration in the intracellular fluid was fixed at pCa 6.5 with Ca^2+-EGTA buffer. The pulse depolarizing from the resting potential −60 mV to +10 mV, was added for 150 mseconds, and the elicited currents were observed. By the depolarizing stimulus, moderately activated outward currents were observed, which are characteristic of BK(α+β1) channel (control in FIG. 4B). After establishing the whole cell, the recording was started at a point where stable current measurements were obtained for 20 minutes. […] After that, by washout, the current went back almost to the level prior to application of the test compounds (FIG. 4A). As a result of a statistical analysis based on the recordings of the 4 examples, the currents were activated by 1.90±0.21 times at concentration of 100 nM, 2.54±0.14 times at 300 nM, and 6.37±0.91 times at 1 μm, by this activating effect.
(In patch-clamp work, channel activity is measured electrically.)

In experiment [2] the target is T1, BKαβ1. Nature of the experiment: Single-channel recording (inside-out patch clamp), HEK293 constantly expressing rat BKα+β1. Conditions: pCa 7.0, +40 mV. It is filed as cell-based. The procedure: According to the inside-out patch clamp technique, a single channel current was recorded on HEK293, in which rat BKα+β1 subunits were constantly expressed. All the experiments were carried out at 22-24° C.
Intracellular fluid (mM) 140 KCl, 1.2 MgCl2, 14 Glucose, 5 EGTA (the pCa was adjusted to 7 by adding a suitable amount of CaCl2 to stabilize the pCa). The pH was adjusted to 7.2 with NaOH.
Extracellular fluid (mM) 140 KCl, 4 MgCl2, 5 ATP, 10 HEPES, 0.05 EGTA. The pH was adjusted to 7.2 with KOH.
as §1
In order to further confirm this point, a single channel current recording was carried out. The single channel current was recorded with respect to the cells in which BK(α+β1) channels were constantly expressed, by the inside-out patch clamp technique. The intracellular fluid (the fluid contacting the inner side of the cell membrane) was fixed at pCa 7.0. […] From these histograms, channel opening probability was calculated to show relation between the concentration and effect as shown in FIG. 5C.

The target of experiment [3] is T1, BKαβ1. Nature of the experiment: BK channel currents in single HEK293 cell expressing BK(α+β1) channels (HEKBKαβ1) under whole-cell voltage clamp. The class given is cell-based. Conditions: 1 to 10 μm; pCa 6.5. From the text: (§2) Effects of test compounds on BK channel currents were examined in single HEK293 cell expressing BK(α+β1) channels (hereinafter referred to as HEKBKαβ1) under whole-cell voltage clamp. The Ca^2+ concentration in the pipette solution was fixed at pCa 6.5 using a Ca^2+-EGTA buffer. Depolarization from −60 mV to +30 mV induced outward currents in both native HEK293 and HEKBKαβ1, but the current density was much higher in the latter (the current density at the peak: 11.0±1.8 and 95.2±20.9 pA/pF, n=5 and 6, respectively, p<0.05). […] This enhancement of outward current by pimaric acid could be removed completely by washout. Effects of other test compounds were also examined in this manner. The peak amplitude of outward current at +40 mV in the presence of 1, 3, and 10 μm resin acids was measured relative to the value taken just before the application (FIG. 6B).

In experiment [4] the target is T2, BKα (Rattus norvegicus, UniProt Q62976).
T2 construct: expressed in transfected cells; host or cells: HEK293
T2 sequence (Q62976 whole entry): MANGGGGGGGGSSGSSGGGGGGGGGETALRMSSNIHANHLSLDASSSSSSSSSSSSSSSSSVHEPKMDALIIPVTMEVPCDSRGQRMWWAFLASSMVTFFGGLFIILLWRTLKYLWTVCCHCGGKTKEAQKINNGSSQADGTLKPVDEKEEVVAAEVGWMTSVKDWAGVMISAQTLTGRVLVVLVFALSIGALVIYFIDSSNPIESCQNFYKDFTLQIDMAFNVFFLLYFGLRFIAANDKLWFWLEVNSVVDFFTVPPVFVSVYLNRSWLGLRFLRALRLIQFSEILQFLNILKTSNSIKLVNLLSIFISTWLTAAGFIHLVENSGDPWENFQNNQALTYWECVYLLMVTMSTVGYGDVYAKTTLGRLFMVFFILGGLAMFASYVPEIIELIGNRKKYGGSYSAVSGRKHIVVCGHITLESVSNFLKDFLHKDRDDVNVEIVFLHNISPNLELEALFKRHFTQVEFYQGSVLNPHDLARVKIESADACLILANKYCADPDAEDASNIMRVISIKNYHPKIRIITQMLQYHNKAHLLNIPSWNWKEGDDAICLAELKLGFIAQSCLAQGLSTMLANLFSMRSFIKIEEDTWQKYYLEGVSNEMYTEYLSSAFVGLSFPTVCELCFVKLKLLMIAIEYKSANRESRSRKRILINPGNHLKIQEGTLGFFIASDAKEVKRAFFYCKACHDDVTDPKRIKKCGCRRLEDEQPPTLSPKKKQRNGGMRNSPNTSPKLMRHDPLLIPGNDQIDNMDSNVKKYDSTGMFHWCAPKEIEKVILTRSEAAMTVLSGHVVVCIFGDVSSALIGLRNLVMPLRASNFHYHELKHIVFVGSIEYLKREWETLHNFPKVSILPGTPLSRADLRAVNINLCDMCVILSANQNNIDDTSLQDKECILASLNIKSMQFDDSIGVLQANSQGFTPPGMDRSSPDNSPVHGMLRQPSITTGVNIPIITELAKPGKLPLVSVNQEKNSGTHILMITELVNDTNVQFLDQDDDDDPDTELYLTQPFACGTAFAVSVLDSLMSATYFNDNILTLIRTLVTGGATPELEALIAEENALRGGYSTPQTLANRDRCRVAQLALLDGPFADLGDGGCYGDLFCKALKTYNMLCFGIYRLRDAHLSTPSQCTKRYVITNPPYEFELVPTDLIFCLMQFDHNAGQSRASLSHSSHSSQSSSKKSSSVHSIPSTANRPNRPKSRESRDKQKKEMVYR
As to the kind of experiment: Single channel current recording by inside-out patch clamp, BKα expressed on HEK293 cells. The class given is cell-based. From the text: (§3) Calcium-activated potassium channel (hereinafter abbreviated as “BK channel” in Examples) functions with two kinds of proteins α (BKα) and β (BKβ) subunits being arranged in tetramers. BKα consists a main part of a channel and BKβ is an activity regulating factor. […] In accordance with a method of Ahring, et al. (Ahring P. K., et al., FEBS Lett., 415, pp. 67-70, 1997), cDNAs of BKα and BKβ1 genes derived from rat uterus smooth muscle (GenBank accession numbers; U55995 and AF020712) were introduced into HEK293 cells by using calcium phosphate coprecipitation transfection techniques, to constantly overexpress BKα or BKαβ.
(a) Single Channel Current Recording by Inside-Out Patch Clamp Technique
By using Inside-out patch clamp technique, fragments of cell membrane containing the channels were isolated, and by artificially controlling an environment of inside of the cell membrane, opening or closing of a single channel can be directly observed. This is a fully established method not only for functional analysis of the channel, but also for testing quantitative effects of the channel agonists (Hamil, O. P., et al., Pflgers Archiv., 391, pp. 85-100, 1981).
Under this condition, action and effect of pimaric acid for BKα was measured.
In Current Amplitude, 0 pA means a closing state. […] In FIG. 3, a relation between a concentration of pimaric acid and an effect of BK channel activation is shown under this condition. By addition of pimaric acid at concentration of 3 μm or more, a significant increase in channel opening probability was confirmed.

For experiment [5], the target named is T1, BKαβ1. As to the kind of experiment: Concentration-dependent block of macroscopic currents by ChTX in HEKBKαβ1, in the absence and presence of pimaric acid. The class given is cell-based. The text has this: The outward currents elicited by depolarization from −60 mV in 10 mV steps were enhanced at potentials positive to −20 mV. The current at +40 mV was increased from 1214±153 to 2527±448 pA (n=5, p<0.05). […] The currents at +40 mV in the presence of 10 μm pimaric acid was reduced from 2527±448 pA to 499±90 pA (p<0.01 versus before the application of and in the presence of 10 μm pimaric acid). […] The normalized data were well fitted with the Hill equation modified for the concentration-response relationship. […] The relationship in the presence of 10 μm pimaric acid was almost identical with that in its absence.

Experiment [6] concerns the target T2, BKα. As to the kind of experiment: Membrane current recording by whole cell voltage-clamp, HEK293 cell expressing BKα channels. The class given is cell-based.
From the text: as §3
(b) Membrane Current Recording by Whole Cell Voltage-Clamp Technique
Membrane current of the whole cell by opening of BKα channels was recorded by Whole cell voltage-clamp technique. This technique is frequently employed to analyze the functions shown by the ion channels expressed in numbers on a cell membrane as a whole, and is a well established technique (Hamil, O. P. the above mentioned reference).

The subject of another experiment is native HEK293. As to the kind of experiment: Outward currents in native HEK293 under whole-cell voltage clamp. The class given is cell-based, human. Conditions: 1 to 10 μm; pCa 6.5.
From the text: as §2

T1 sequence (Q62976 whole entry): as above
T1 sequence (P97678 whole entry partner): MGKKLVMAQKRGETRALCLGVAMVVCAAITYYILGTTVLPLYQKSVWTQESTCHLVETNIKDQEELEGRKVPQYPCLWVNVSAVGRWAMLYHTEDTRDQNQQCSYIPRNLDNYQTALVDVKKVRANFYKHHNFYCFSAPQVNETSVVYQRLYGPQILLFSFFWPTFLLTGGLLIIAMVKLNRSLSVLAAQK

With `CC(C)c1c(Cl)cc2c(c1Cl)CC[C@H]1[C@](C)(C(=O)O)CCC[C@]21C` [dichlorodehydroabietic acid], the figures for the “activation of whole-cell current” value on BKαβ1 [1] (100 nM), at BKαβ1 [1] (300 nM) and on BKαβ1 [1] (1 μm) were 1.90±0.21 times, 2.54±0.14 times and 6.37±0.91 times, respectively. Moreover, at BKαβ1 [2] (applied to inner side of cell membrane), the “concentration at which channel activation was observed” value is at least 100 nM. Also, the “relation between concentration and channel opening probability” value at BKαβ1 [2] is listed as “concentration-dependent”.
Turning to `C=C[C@@]1(C)C=C2CC[C@@H]3[C@](C)(CCC[C@@]3(C)C(=O)O)[C@H]2CC1` [pimaric acid], the “outward currents in HEKBKαβ1” value on BKαβ1 [3] is given as “increased outward currents in a dose-dependent fashion”. The “increase of opening probability” value at BKα [4] (1 μM, Ca of inner side 0.3 μm, patch membrane potential +40 mV) is on record as “increased by three times”. Further, the “time of an opening state (histograms of 30 s current recordings)” value on BKα [4] (1 μm or 10 μm, +40 mV, Ca 0.1 μM) was “increased time of an opening state”. The “concentration giving a significant increase in channel opening probability” value on BKα [4] (+40 mV, Ca 0.1 μM) is recorded as at least 3 μm. In addition, the “channel activity (BKα single channel)” value at BKα [4] (added to solution of inner side of cell membrane at 10 μm or less, +40 mV, Ca 0.1 μM) is reported as “significantly increased”. Besides, the “BK channel opening effect relative to NS-1619” value at BKα [4] (comparison with known compound) is at least 10 times. Besides, on BKα [4] (comparison with literature value), the “BK channel opening effect relative to maxikdiol described in the reference” value is “at least three times or more”. Further, the “activation of whole-cell current” value at BKαβ1 [1] (1 μm) is listed as 1.92±0.24 times. Besides, the “effect on the binding of ChTX to BK channels” value on BKαβ1 [5] (10 μm pimaric acid) is “does not affect the binding of ChTX to BK channels”. For the same molecule, at BKαβ1 [5] (10 μm pimaric acid, control 1214±153 pA), the “outward current at +40 mV” value amounted to 2527±448 pA. Also, the “increase of BKα current” value at BKα [6] (1 μm added to extracellular fluid, +60 mV) is reported as “about 50%”. Moreover, in the experiment on native HEK293, the “outward currents in native HEK293” value was “did not change”.
Turning to `CC[N+](CC)(CC)CC` [tetraethylammonium, reference compound], the “inhibition of the action of pimaric acid on BKα current” value against BKα [6] (1 mM tetraethylammonium) was “completely inhibited”.
As to charybdotoxin [ChTX], on BKαβ1 [5] (100 nM ChTX in the absence of pimaric acid, before 1233±226 pA), the “current amplitude at +40 mV after ChTX” value is given as 205±46 pA. The “outward current at +40 mV after ChTX” value at BKαβ1 [5] (100 nM ChTX in the presence of 10 μm pimaric acid, before 2527±448 pA) is 499±90 pA. Moreover, on BKαβ1 [5] (absence of pimaric acid), the “C (constant; native K+ currents insensitive to ChTX)” value turned out to be 0.077±0.0226 and the “nH (Hill coefficient)” value was 0.847±0.034. For the same molecule, on BKαβ1 [5] (presence of 10 μm pimaric acid), the “C (constant; native K+ currents insensitive to ChTX)” value was found to be 0.0965±0.0388 and the “nH (Hill coefficient)” value is recorded as 0.982±0.161.

Source of the values: US7495127B2, “Potassium channel opener” (Mitsubishi Tanabe Pharma Corporation, priority 2001, dated 2009).
